Measured values published in patent US20090156644A1, “Use of thiazole derivatives and analogues in the treatment of cancer” (priority 2005, published 2009).

How the values were obtained:
MDA-MB-231 cells = test: Test A cell proliferation assay (FFA/linolenic acid stimulated, S-phase by flow cytometry); type: cell-based, human; conditions: linolenic acid 100 μM, 24 hours; Compounds X and Y 10 μM, Compound Z 40 μM; FIGS. 1c, 2A-2C
Experimental: Dulbecco's modified Eagle's medium (D-MEM)+1000 mg/L Glucose+GlutaMAX™1+Pyruvate (Gibco #21885-025)
PEST (100 U/ml penicillin, 100 ug/ml streptomycin, Gibco 15140-122) CyStain PI absolute T Kit (Partec #05-5023) Linolenic acid 99%, L2376 from Sigma Aldrich Dimethyl sulfoxide (DMSO)
Cytomics™ FC500 Flow Cytometer with CXP software (Beckman Coulter) MDA-MB-231 cells
MDA-MB-231 cells were cultured in the propagation media D-MEM+1000 mg/L Glucose+GlutaMAX™1+Pyruvate supplemented with 10% V/V Foetal Bovine Serum and PEST (100 U/ml penicillin, 100 μg/mL streptomycin). Cells were seeded in 6 well plates to a density of 300 000 cells/well in propagation media. After 24 hours, media was replaced with serum free D-MEM media.
Linolenic acid was diluted in DMSO to a concentration of 100 mM and added to the culture media to a final concentration of 100 μM.
Compounds were as dissolved in DMSO to a concentrations of 10 mM (Compounds of Examples 95 and 6 (Compound X and Compound Y, respectively)) and 40 mM (Compound of Example 4 (Compound Z)) and added to the culture media to a final concentration of 10 μM (X and Y) and 40 μM (Z) respectively.
After 24 hours in serum free media DMEM, linolenic acid (to a final concentration of […]) and compounds to be screened for activity were added to a final concentration of 10 μM (Compounds X and Y) and 40 μM (Compound Z) respectively. Final DMSO concentration was kept at 0.2% in all wells. After 24 hours of stimulation, cells were harvested and propidium iodine stained using a CyStain PI absolute T Kit according to manufacturer's recommendations. Cells were subsequently analyzed using a Cytomics™ FC500 Flow Cytometer with CXP software (Beckman Coulter) for cell cycle distribution. Cells were incubated with or without linolenic acid (LA) and the Compounds X, Y and Z for 24 hours at indicated concentrations. Cells in S-phase from untreated sample were set to 100% in each experiment.

[1] = test system: MDA-MB-231 human breast cancer cells; test: Test B in vivo mouse model, tumor histology; design: species or system Athymic BALB/cA nude mice; conditions: 1 mg/kg intraperitoneal once daily for 9 days; for cell density in the interior of the tumor section / cells displaying macrophage/monocyte morphology in the interior of the tumor section: hematoxylin stained cryosections, versus vehicle
Experimental: week old Athymic BALB/cA nude mice were delivered from Taconic (Denmark) and kept under barrier conditions for 1 week acclimatisation. At 6 weeks, 17 mice were injected subcutaneously on the flank with 1.8×10^6 MDA-MB-231 human breast cancer cells (LGC Promochem-ATCC) in a 50/50 v/v solution of phosphate buffered saline (PBS) (Gibco 10010-015, Invitrogen) Matrigel HC (BD Biosciences).
2 mice were sacrificed and the tumors dissected and examined. 2 groups of 7 mice each were treated once daily by intraperitoneal injections of 1 mg/kg bodyweight of the compound of Example 6 (Compound Y) in PBS/1% v/v dimethylsufoxide or vehicle control respectively for 9 days. The mice were sacrificed by cervical dislocation and tumors were dissected.
The tumor tissue were fixated overnight in PBS (containing 4% w/v paraformaldehyde (Scharlau PA0095, Sharlau Chemie SA, Spain) at +4° C. The tumor tissue were then cryopreserved by 24 hour incubation in PBS containing 30% w/v sucrose (BDH #102745C (www.vwr.com) at +4° C. and embedded in Tissue-Tek embedding media (Sakura Finetek Europa BV, Netherlands). 10 μm cryosections were generated an stained with Mayers Hematoxylin (Dako) for 5 min and destained for 3×10 minutes in tap water. Slides were mounted using Dako faramount aqueous mounting medium and examined using a Nikon Eclipse TS 100 microscope documented using a Nikon coolpix 4500.
The tumors from mice treated with test compound and vehicle were analyzed for morphology by microscopic examination of hematoxylin stained cryosections.

| Compound | antagonism of free fatty acid stimulated cell proliferation (MDA-MB-231 cells) | cells displaying fibroblast morphology in the interior of the tumor section ([1]; hematoxylin stained cryosection, 20× magnification) | cell density in the interior of the tumor section [1] | cells displaying macrophage/monocyte morphology in the interior of the tumor section [1] | cell density in the interior of the tumor section ([1]; listed as test compound) | cells displaying macrophage/monocyte morphology in the interior of the tumor section ([1]; listed as test compound) |
| --- | --- | --- | --- | --- | --- | --- |
| O=C1NC(=Nc2ccccn2)SC1Cc1ccc(F)cc1 (centres unmarked) [Compound X, 5-(4-Fluorobenzyl)-2-(pyridin-2-ylimino)thiazolidin-4-one] | able to antagonize free fatty acid stimulated cell proliferation |  |  |  |  |  |
| O=C1NC(=Nc2ccc(Cl)cc2)SC1Cc1cccc(C(F)(F)F)c1 (centres unmarked) [Compound Y, 5-(3-(Trifluoromethyl)benzyl)-2-(4-chlorophenylimino)thiazolidin-4-one] | able to antagonize free fatty acid stimulated cell proliferation | lack of cells displaying fibroblast morphology | low cell density | accumulation of cells displaying morphology indicative of macrophage/monocyte | markedly reduced | a frequent finding |
| Cc1ccc(N=C2NC(=O)C(Cc3cccc(C(F)(F)F)c3)S2)cc1 (centres unmarked) [Compound Z, 5-(3-(Trifluoromethyl)benzyl)-2-(p-tolylimino)thiazolidin-4-one] | able to antagonize free fatty acid stimulated cell proliferation |  |  |  |  |  |
